The source of these data is patent publication US10745382B2 (BRISTOL-MYERS SQUIBB COMPANY, priority 2015, dated 2020).

Structures are written as SMILES. pIC50: −log10 of the molar value.

The target in one assay is T1, PD-1/PD-L1 (Homo sapiens, UniProt Q9NZQ7).
T1 construct: made in house; host or cells: HEK293T
T1 sequence (Q9NZQ7 with tags, fused parts or gaps): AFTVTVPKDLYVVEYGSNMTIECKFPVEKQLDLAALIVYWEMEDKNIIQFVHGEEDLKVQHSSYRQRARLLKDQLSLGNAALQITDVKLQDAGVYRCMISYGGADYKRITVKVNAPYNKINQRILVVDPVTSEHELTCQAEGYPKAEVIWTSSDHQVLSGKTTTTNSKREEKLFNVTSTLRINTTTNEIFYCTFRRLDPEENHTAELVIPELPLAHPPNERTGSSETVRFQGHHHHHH
In words: PD-1/PD-L1 Homogenous Time-Resolved Fluorescence (HTRF) binding assay. The following applies: PD-L1-His 10 nM, PD-1-Ig 20 nM; numeric IC50; read-out: Range or IC50. Put shortly:
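dPBS + 0.1% BSA + 0.05% Tween-20 buffer; Eu-cryptate anti-Ig 1 nM final, APC anti-His 20 nM final; HTRF read. Counter-assays: PD-1-Ig/PD-L2-His 20 & 5 nM, CD80-His/PD-L1-Ig 100 & 10 nM.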
A general note: TR-FRET usually uses a lanthanide donor and a delayed reading to cut background.
What is called pIC50 is the IC50 on a negative log10 scale, so that one unit is a factor of ten. Consider `Cc1c(COc2cc(OCc3cncc(C#N)c3)c(CN3CCCC[C@H]3C(=O)O)cc2Cl)cccc1-c1cccc(CN(C)CCN2CCS(=O)(=O)CC2)c1C` [Example 4079, (S)-1-(5-chloro-2-((5-cyanopyridin-3-yl)methoxy)-4-((3′-(((2-(1,1-dioxidothiomorpholino)ethyl)(methyl)amino)methyl)-2,2′-dimethyl-[1,1′-biphenyl]-3-yl)methoxy)benzyl)piperidine-2-carboxylic Acid], for which the pIC50 is 7.14.

The same assay, now with this note: PD-L1-His 10 nM, PD-1-Ig 20 nM; value given as range class; read-out: Range or IC50.
Take `Cc1c(CCCCN2CC[C@@H](O)C2)cccc1-c1cccc(COc2cc(OCc3cncc(C#N)c3)c(CN3CCCC[C@H]3C(=O)O)cc2Cl)c1C` [Example 4061, (S)-1-(5-chloro-2-((5-cyanopyridin-3-yl)methoxy)-4-((3′-(4-((R)-3-hydroxypyrrolidin-1-yl)butyl)-2,2′-dimethyl-[1,1′-biphenyl]-3-yl)methoxy)benzyl)piperidine-2-carboxylic Acid]: the pIC50 was 8.00 to 9.68. On the same count and under the same terms, to `Cc1c(CCCCN2CC[C@@H](O)C2)cccc1-c1cccc(COc2cc(OCc3cncc(C#N)c3)c(CN3C[C@H](O)C[C@H]3C(=O)O)cc2Cl)c1C` [Example 4062, (2S,4R)-1-(5-chloro-2-((5-cyanopyridin-3-yl)methoxy)-4-((3′-(4-((R)-3-hydroxypyrrolidin-1-yl)butyl)-2,2′-dimethyl-[1,1′-biphenyl]-3-yl)methoxy)benzyl)-4-hydroxypyrrolidine-2-carboxylic Acid] belongs 8.00 to 9.68; to `Cc1c(CCCCN2CC[C@@H](O)C2)cccc1-c1cccc(COc2cc(OCc3cncc(C#N)c3)c(CN3C[C@@H](O)C[C@H]3C(=O)O)cc2Cl)c1C` [Example 4063, (2S,4S)-1-(5-chloro-2-((5-cyanopyridin-3-yl)methoxy)-4-((3′-(4-((R)-3-hydroxypyrrolidin-1-yl)butyl)-2,2′-dimethyl-[1,1′-biphenyl]-3-yl)methoxy)benzyl)-4-hydroxypyrrolidine-2-carboxylic Acid], 8.00 to 9.68; to `Cc1c(CCCCN2CC[C@@H](O)C2)cccc1-c1cccc(COc2cc(OCc3cncc(C#N)c3)c(CNC(CO)CO)cc2Cl)c1C` [Example 4064, (R)-5-((4-chloro-2-(((1,3-dihydroxypropan-2-yl)amino)methyl)-5-((3′-(4-(3-hydroxypyrrolidin-1-yl)butyl)-2,2′-dimethyl-[1,1′-biphenyl]-3-yl)methoxy)phenoxy)methyl)nicotinonitrile], 8.00 to 9.68.

On to `Cc1c(CCCCN2CC[C@@H](O)C2)cccc1-c1cccc(COc2cc(OCc3cncc(C#N)c3)c(CNC(C)(CO)CO)cc2Cl)c1C` [Example 4065, (R)-5-((4-chloro-2-(((1,3-dihydroxy-2-methylpropan-2-yl)amino)methyl)-5-((3′-(4-(3-hydroxypyrrolidin-1-yl)butyl)-2,2′-dimethyl-[1,1′-biphenyl]-3-yl)methoxy)phenoxy)methyl)nicotinonitrile], for which the pIC50 is 8.00 to 9.68.

Regarding `Cc1c(CCCCN2CC[C@@H](O)C2)cccc1-c1cccc(COc2cc(OCc3cncc(C#N)c3)c(CNC(CO)(CO)CO)cc2Cl)c1C` [Example 4066, (R)-5-((4-chloro-2-(((1,3-dihydroxy-2-(hydroxymethyl)propan-2-yl)amino)methyl)-5-((3′-(4-(3-hydroxypyrrolidin-1-yl)butyl)-2,2′-dimethyl-[1,1′-biphenyl]-3-yl)methoxy)phenoxy)methyl)nicotinonitrile], the negative-log IC50 (pIC50) was 8.00 to 9.68.

Regarding `Cc1c(CCCCN2CC[C@@H](O)C2)cccc1-c1cccc(COc2cc(OCc3cncc(C#N)c3)c(CN[C@@H](CNC(=O)OC(C)(C)C)C(=O)O)cc2Cl)c1C` [Example 4067, (S)-3-((tert-butoxycarbonyl)amino)-2-((5-chloro-2-((5-cyanopyridin-3-yl)methoxy)-4-((3′-(4-((R)-3-hydroxypyrrolidin-1-yl)butyl)-2,2′-dimethyl-[1,1′-biphenyl]-3-yl)methoxy)benzyl)amino)propanoic Acid], the pIC50 is 8.00 to 9.68.

As to `Cc1c(CCCCN2CC[C@@H](O)C2)cccc1-c1cccc(COc2cc(OCc3cncc(C#N)c3)c(CN3CCN(C(=O)OC(C)(C)C)C[C@H]3C(=O)O)cc2Cl)c1C` [Example 4068, (S)-4-(tert-butoxycarbonyl)-1-(5-chloro-2-((5-cyanopyridin-3-yl)methoxy)-4-((3′-(4-((R)-3-hydroxypyrrolidin-1-yl)butyl)-2,2′-dimethyl-[1,1′-biphenyl]-3-yl)methoxy)benzyl)piperazine-2-carboxylic Acid], the negative logarithm of the IC50 (pIC50) was 8.00 to 9.68. Turning to `Cc1c(CCCCN2CC[C@@H](O)C2)cccc1-c1cccc(COc2cc(OCc3cncc(C#N)c3)c(CN[C@@H](CN)C(=O)O)cc2Cl)c1C` [Example 4069, (S)-3-amino-2-((5-chloro-2-((5-cyanopyridin-3-yl)methoxy)-4-((3′-(4-((R)-3-hydroxypyrrolidin-1-yl)butyl)-2,2′-dimethyl-[1,1′-biphenyl]-3-yl)methoxy)benzyl)amino)propanoic Acid], the pIC50 is 8.00 to 9.68. Take `Cc1c(CCCCN2CC[C@@H](O)C2)cccc1-c1cccc(COc2cc(OCc3cncc(C#N)c3)c(CN3CCNC[C@H]3C(=O)O)cc2Cl)c1C` [Example 4070, (S)-1-(5-chloro-2-((5-cyanopyridin-3-yl)methoxy)-4-((3′-(4-((R)-3-hydroxypyrrolidin-1-yl)butyl)-2,2′-dimethyl-[1,1′-biphenyl]-3-yl)methoxy)benzyl)piperazine-2-carboxylic Acid]: the negative logarithm of the IC50 (pIC50) is 8.00 to 9.68.

As for `Cc1c(COc2cc(OCc3cncc(C#N)c3)c(CNC(CO)CO)cc2Cl)cccc1-c1cccc(CN(C)CCN2CCS(=O)(=O)CC2)c1C` [Example 4080, 5-((4-chloro-2-(((1,3-dihydroxypropan-2-yl)amino)methyl)-5-((3′-(((2-(1,1-dioxidothiomorpholino)ethyl)(methyl)amino)methyl)-2,2′-dimethyl-[1,1′-biphenyl]-3-yl)methoxy)phenoxy)methyl)nicotinonitrile], the pIC50 was 8.00 to 9.68.

Consider `Cc1c(COc2cc(OCc3cncc(C#N)c3)c(CN[C@@](C)(CO)C(=O)O)cc2Cl)cccc1-c1cccc(CN(C)CCN2CCS(=O)(=O)CC2)c1C` [Example 4081, (S)-2-((5-chloro-2-((5-cyanopyridin-3-yl)methoxy)-4-((3′-(((2-(1,1-dioxidothiomorpholino)ethyl)(methyl)amino)methyl)-2,2′-dimethyl-[1,1′-biphenyl]-3-yl)methoxy)benzyl)amino)-3-hydroxy-2-methylpropanoic Acid], for which the pIC50 was 7.00 to 8.00. Still for that read-out and setting: to `Cc1c(COc2cc(OCc3cncc(C#N)c3)c(CNC(C)(CO)CO)cc2Cl)cccc1-c1cccc(CN(C)CCN2CCS(=O)(=O)CC2)c1C` [Example 4082, 5-((4-chloro-2-(((1,3-dihydroxy-2-methylpropan-2-yl)amino)methyl)-5-((3′-(((2-(1,1-dioxidothiomorpholino)ethyl)(methyl)amino)methyl)-2,2′-dimethyl-[1,1′-biphenyl]-3-yl)methoxy)phenoxy)methyl)nicotinonitrile] belongs 8.00 to 9.68; to `Cc1c(COc2cc(OCc3cncc(C#N)c3)c(CNC(CO)(CO)CO)cc2Cl)cccc1-c1cccc(CN(C)CCN2CCS(=O)(=O)CC2)c1C` [Example 4083, 5-((4-chloro-2-(((1,3-dihydroxy-2-(hydroxymethyl)propan-2-yl)amino)methyl)-5-((3′-(((2-(1,1-dioxidothiomorpholino)ethyl)(methyl)amino)methyl)-2,2′-dimethyl-[1,1′-biphenyl]-3-yl)methoxy)phenoxy)methyl)nicotinonitrile], 8.00 to 9.68; to `Cc1c(COc2cc(OCc3cncc(C#N)c3)c(CN(CCO)CCO)cc2Cl)cccc1-c1cccc(CN(C)CCN2CCS(=O)(=O)CC2)c1C` [Example 4084, 5-((2-((bis(2-hydroxyethyl)amino)methyl)-4-chloro-5-((3′-(((2-(1,1-dioxidothiomorpholino)ethyl)(methyl)amino)methyl)-2,2′-dimethyl-[1,1′-biphenyl]-3-yl)methoxy)phenoxy)methyl)nicotinonitrile], 7.00 to 8.00. The same measure, in the same setting: to `Cc1c(COc2cc(OCc3cncc(C#N)c3)c(CN(CCO)CCCO)cc2Cl)cccc1-c1cccc(CN(C)CCN2CCS(=O)(=O)CC2)c1C` [Example 4085, 5-((4-chloro-5-((3′-(((2-(1,1-dioxidothiomorpholino)ethyl)(methyl)amino)methyl)-2,2′-dimethyl-[1,1′-biphenyl]-3-yl)methoxy)-2-(((2-hydroxyethyl)(3-hydroxypropyl)amino)methyl)phenoxy)methyl)nicotinonitrile] belongs 7.00 to 8.00; to `Cc1cc(OCc2cccc(-c3cccc(OCCCN4CC[C@@H](O)C4)c3C)c2C)cc(OCc2cncc(C#N)c2)c1CN1CCCC[C@H]1C(=O)O` [Example 4086, (S)-1-(2-((5-cyanopyridin-3-yl)methoxy)-4-((3′-(3-((R)-3-hydroxypyrrolidin-1-yl)propoxy)-2,2′-dimethyl-[1,1′-biphenyl]-3-yl)methoxy)-6-methylbenzyl)piperidine-2-carboxylic Acid], 8.00 to 9.68. With `Cc1cc(OCc2cccc(-c3cccc(OCCCN4CC[C@@H](O)C4)c3C)c2C)cc(OCc2cncc(C#N)c2)c1CNC(CO)CO` [Example 4087, (R)-5-((2-(((1,3-dihydroxypropan-2-yl)amino)methyl)-5-((3′-(3-(3-hydroxypyrrolidin-1-yl)propoxy)-2,2′-dimethyl-[1,1′-biphenyl]-3-yl)methoxy)-3-methylphenoxy)methyl)nicotinonitrile], the pIC50 was 8.00 to 9.68. `Cc1cc(OCc2cccc(-c3cccc(OCCCN4CC[C@@H](O)C4)c3C)c2C)cc(OCc2cncc(C#N)c2)c1CNC(C)(CO)CO` [Example 4088, (R)-5-((2-(((1,3-dihydroxy-2-methylpropan-2-yl)amino)methyl)-5-((3′-(3-(3-hydroxypyrrolidin-1-yl)propoxy)-2,2′-dimethyl-[1,1′-biphenyl]-3-yl)methoxy)-3-methylphenoxy)methyl)nicotinonitrile]: the pIC50 is 8.00 to 9.68.
